# From patent US8198285B2, “Pyrazine derivatives” (Astrazeneca AB, priority 2010, dated 2012)
# Structures can show the parent of a compound that is named as a salt.
# Columns and labels:
# [1] = system: human adipose-derived stem cells (hADSC); assay: Osteogenic differentiation and assessment of mineralisation in vitro (Alizarin Red S); format: cell-based; details: 300 nM; 24 days of cell culture; relative to vehicle control (0.2% DMSO)
# Experimental: (§1) For in vitro osteogenesis, human adipose-derived stem cells (hADSC) (Invitrogen, UK; catalogue number R7788-115) were seeded into 12-well plates at a density of 5000 cells/cm^2 and were cultured in a basal media of phenol red-free Dulbecco's Modified Eagles Medium (DMEM; Sigma-Aldrich, UK; catalogue number D1145) supplemented with 5% fetal bovine serum (FBS, Gibco, UK; catalogue number 10270) and 2 mM GlutaMax® (Gibco; catalogue number 35050). […] The formation of mineralized bone nodules was assessed during the time-course using Alizarin Red S staining. […] The amount of mineralisation was quantified through the extraction of the Alizarin Red S stain from bone nodules using a cetylpyridinium chloride extraction method, previously described (Gregory et al., Analytical Biochemistry, 2004, 329: 77-84; Hwang et al., Stem Cells and Development 17: 963-970, 2008). […] Following incubation, 200 μl aliquots were transferred to 96-well format and the absorbance at 550 nm was determined using a microplate spectrophotometer (SpectraMax Plus, Molecular Devices, USA). Data were expressed as mean absorbance at 550 nm±Standard error of mean (SEM). […] Data are shown as mean absorbance at 550 nm and analysed using one-way ANOVA followed by Tukey's multiple comparison post hoc test: n=9; ***, P<0.001. […]
# [2] = system: N-terminal propeptide of type I procollagen (P1NP); assay: Bone biomarker evaluation: serum P1NP assay; format: in vivo, rat; details: oral once a day, 7 consecutive days, female CRL:CD rats
# Experimental: as §1
# PIM3 = PIM3 (Homo sapiens, UniProt Q86V86); assay: Inhibitory activity against PIM3; format: biochemical
# female CRL:CD rats = assay: Bone densitometry (pQCT) of right femur in rats; format: in vivo, rat; details: oral once a day, 14 consecutive days, 15 mg/kg
# Experimental: as §1
smiles,measurement,setting,value
"COCCCNCCCc1ccc(-c2cnc(N)c(C(=O)Nc3cccnc3)n2)cc1 [Example 1, 3-Amino-6-(4-{3-[(3-methoxypropyl)amino]propyl}phenyl)-N-pyridin-3-ylpyrazine-2-carboxamide tri-hydrochloride]",Alizarin red S staining of mineralised bone nodules,[1],significantly induced progenitor cell commitment and osteoblast differentiation
same,Serum P1NP levels (marker of bone formation),[2],increase in serum P1NP levels
same,Inhibitory activity against PIM3,PIM3,inhibitory activity
same,Increase in right femur metaphysis total BMD compared with vehicle treated rats,female CRL:CD rats,6.6%
same,Total BMD in femur (mean±SEM),female CRL:CD rats,814.41 ± 15 mg/mL
